According to paper PMC9182347, “α-Glucosidase, α-Amylase and Antioxidant Evaluations of Isolated Bioactives from Wild Strawberry” (Molecules, 2022):
“And” between values parts separate entries of the source, which are not always exact repeats. Equal entries are not always repeated.

Experiments:
α-amylase = assay: In vitro α-amylase inhibition; format: biochemical; conditions: for α-Amylase Percent Inhibition: mean ± SEM, n = 3
Protocol: The amylase solution was prepared in phosphate buffer. The solutions of the F. indica and isolated compounds (62.50 to 1000 µg/mL) were added to the amylase solution and allowed to react. After reaction completion, starch solution was added and incubated as per the standard method. Afterwards, a solution of dinitro-salicylic acid was added to both test and control groups. The final solutions were heated for 3 min in boiling water and the absorbances were measured at […]. The experiments were performed in triplicates and percent inhibitions were calculated.
(§1) The half inhibitory concentration (IC50) was calculated using Microsoft Excel program as per our previously reported method.

[1] = DPPH free radicals scavenging assay; conditions: for DPPH Percent Inhibition: mean ± SEM, n = 3
Protocol: The antioxidant activity was carried out for F. indica extracts, semi-purified ethyl acetate fractions and isolated compounds using DPPH free radicals. DPPH solution was prepared (24 mg/100 mL of methanol). Stock solutions (1 mg/mL) of F. indica extracts and isolated compounds were prepared in methanol and then diluted to 1000, 500, 250, 125, 62.5 μg/mL. Sample and DPPH solutions were mixed in a ratio of 1:1 and were incubated at 23 °C for 30 min. Finally, absorbance was measured at 517 nm using UV spectrophotometer (Thermo electron corporation, Waltham, MA, USA). Ascorbic acid was used as positive control. Percent radical scavenging activity was measured using the reported equations [61].
as §1

α-glucosidase = α-glucosidase (Saccharomyces cerevisiae, UniProt P53341); format: biochemical
Protocol: The α-glucosidase solution (120 μL) of 0.50 U/mL in 0.10 M phosphate buffer (pH 6.90) was prepared and p-nitrophenyl-α-D-glucopyranoside (5 mM) was added as substrate solution. Different concentrations ranging from 62.50 µg/mL to 1000 µg/mL of the crude extracts, semi-purified fractions and isolated compounds of F. indica were prepared accordingly. The plant’s samples (extracts, semi-purified and purified compounds) were mixed with the solutions of enzyme as per the experiment and were incubated at 37 °C.
After initial incubation for 15 min, 20 μL p-nitrophenyl-α-D-glucopyranoside solution was mixed and was again incubated in the same way. Finally, 80 μL solution of sod. carbonate (0.20 M) was added to finish up the reaction. The solution containing all the substrates except α-glucosidase served as a blank. The absorbances of experiments were measured at 405 nm. The experiments were repeated 3 times and the calculations were made as per the standard protocols.
as §1

Sequence of α-glucosidase (P53341 whole entry): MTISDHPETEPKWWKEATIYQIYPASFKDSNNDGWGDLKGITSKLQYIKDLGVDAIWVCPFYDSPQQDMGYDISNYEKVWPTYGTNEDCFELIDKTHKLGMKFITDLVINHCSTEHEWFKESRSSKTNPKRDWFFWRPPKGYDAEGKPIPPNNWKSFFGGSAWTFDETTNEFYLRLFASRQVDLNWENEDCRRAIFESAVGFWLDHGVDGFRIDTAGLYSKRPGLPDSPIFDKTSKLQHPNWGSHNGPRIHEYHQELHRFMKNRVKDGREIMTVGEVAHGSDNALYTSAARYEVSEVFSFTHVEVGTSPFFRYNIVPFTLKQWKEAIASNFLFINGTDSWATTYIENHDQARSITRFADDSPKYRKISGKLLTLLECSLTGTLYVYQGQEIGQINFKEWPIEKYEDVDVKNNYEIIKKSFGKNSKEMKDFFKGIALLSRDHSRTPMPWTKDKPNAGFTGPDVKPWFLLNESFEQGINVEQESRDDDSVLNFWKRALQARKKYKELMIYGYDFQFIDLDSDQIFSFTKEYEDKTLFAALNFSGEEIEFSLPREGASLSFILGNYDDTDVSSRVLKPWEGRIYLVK

For `CC(C)=CC(=O)CC(C)c1ccc(C)cc1` (stereo not shown) [Compound 2, 2-methyl-6-(4-methylphenyl)-2-hepten-4-one], the “α-Amylase IC50” value (α-amylase) was 16.56 µg/mL and the “DPPH IC50” value [1] was 14.30 µg/mL.

For `O=C1O[C@H]([C@@H](O)CO)C(O)=C1O` [Ascorbic acid], the “DPPH IC50” value [1] was 4.98 µg/mL, the “DPPH Percent Inhibition” value ([1]; 62.5 μg/mL) was 75.45 ± 0.90% and the “DPPH Percent Inhibition” value ([1]; 125 μg/mL) was 77.61 ± 0.43%. For the same compound, the “DPPH Percent Inhibition” value ([1]; 250 μg/mL) was 82.40 ± 0.20%, the “DPPH Percent Inhibition” value ([1]; 500 μg/mL) was 87.08 ± 0.47% and the “DPPH Percent Inhibition” value ([1]; 1000 μg/mL) was 91.90 ± 0.96%.

For `COc1c(O)c(C)c(Cl)c(OC)c1Cl` [Compound 1, 2,4-dichloro-6-hydroxy-3,5-dimethoxytoluene], the “α-Amylase IC50” value (α-amylase) was 15.03 µg/mL and 17.65 µg/mL and the “DPPH IC50” value [1] was 7.62 µg/mL.

With `C[C@H]1O[C@H](O[C@H]2[C@H](O)[C@@H](O)[C@@H](O[C@H]3[C@H](O)[C@@H](O)C(O)O[C@@H]3CO)O[C@@H]2CO)[C@H](O)[C@@H](O)[C@@H]1N[C@H]1C=C(CO)[C@@H](O)[C@H](O)[C@H]1O` (stereo partly shown) [Acarbose, acarbose] the “α-Glucosidase Percent Inhibition” value (α-glucosidase) was 96.00 ± 0.30% and 90.61 ± 0.43% and 84.03 ± 0.86% and 77.58 ± 0.77% and 71.48 ± 0.74%, the “α-Amylase Percent Inhibition” value (α-amylase; 62.5 μg/mL) was 63.26 ± 0.93% and the “α-Amylase Percent Inhibition” value (α-amylase; 125 μg/mL) was 67.05 ± 0.49%. For the same compound, the “α-Amylase Percent Inhibition” value (α-amylase; 250 μg/mL) was 71.56 ± 0.49%, the “α-Amylase Percent Inhibition” value (α-amylase; 500 μg/mL) was 74.03 ± 0.64% and the “α-Amylase Percent Inhibition” value (α-amylase; 1000 μg/mL) was 82.43 ± 0.52%.
